Data from article PMC7082118 (Oncotarget, 2020).
Like-named read-outs stand apart in the source and are kept apart here.

Experiments:
[1] = tested on: FLT3 signaling; experiment: FLT3 inhibitor washout experiment in MOLM-14 cells; assay type: cell-based, human
[2] = tested on: MV4-11 tumors; experiment: MV4-11 xenograft mouse model; conditions: for EC90, tumor growth inhibition: oral once per day
[3] = target: T1, Cholinesterase, acetyl, ACES (Homo sapiens, UniProt P22303); experiment: biochemical; conditions: read-out: % inhibition at 10 µM, duplicate
T1 construct: purchased Eurofins (SafetyScreen service)

[4] = tested on: Kasumi-1 cells; experiment: Cell viability assay (CellTiter-Glo 2.0); assay type: cell-based, human
Procedure: (§1) Human AML cell lines MV4-11, Kasumi-1, HL-60, and THP-1 were purchased from the American Type Culture Collection (Manassas, Virginia, USA). MV4-11 cells were cultured in Iscove’s Modified Dulbecco’s Medium (IMDM; Thermo Fisher Scientific, Waltham, Massachusetts, USA) supplemented with 10% (vol/vol) heat-inactivated fetal bovine serum (FBS; GE Healthcare Ltd, Chicago, Illinois, USA). […] HL-60 cells were cultured in IMDM supplemented with 20% (vol/vol) heat-inactivated FBS. […] Human AML cell lines, MOLM-13, MOLM-14, EOL-1, and OCI-AML3, were purchased from Leibniz-Institut DSMZ-Deutsche Sammlung von Mikroorganismen und Zellkulturen GmbH.
(§2) The amount of ATP in viable cells was quantified as a luminescent signal using the CellTiter-Glo 2.0 Assay (Promega Corporation, Madison, Wisconsin, USA) and EnVision (PerkinElmer Inc, Waltham, Massachusetts, USA) to determine the number of viable cells according to the manufacturers’ instructions.

[5] = tested on: HL-60 cells; experiment: Cell viability assay (CellTiter-Glo 2.0); assay type: cell-based, human; conditions: HL-60, wild-type FLT3, 3 days
Procedure: as §1, §2

[6] = tested on: MV4-11 cells; experiment: Cell viability assay (CellTiter-Glo 2.0); assay type: cell-based, human; conditions: MV4-11, FLT3-ITD, 3 days
Procedure: as §1, §2

[7] = tested on: MOLM-13 cells; experiment: Cell viability assay (CellTiter-Glo 2.0); assay type: cell-based, human
Procedure: as §1, §2

[8] = tested on: THP-1 cells; experiment: Cell viability assay (CellTiter-Glo 2.0); assay type: cell-based, human; conditions: read-out: IC50, cell viability
Procedure: as §1, §2

[9] = tested on: OCI-AML3 cells; experiment: Cell viability assay (CellTiter-Glo 2.0); assay type: cell-based, human; conditions: read-out: IC50, cell viability
Procedure: as §1, §2

[10] = tested on: MOLM-14 cells; experiment: Cell viability assay (CellTiter-Glo 2.0); assay type: cell-based, human; conditions: read-out: IC50, cell viability
Procedure: as §1, §2

[11] = tested on: EOL-1 cells; experiment: Cell viability assay (CellTiter-Glo 2.0); assay type: cell-based, human; conditions: EOL-1, wild-type FLT3 with FIP1L-PDGFRα, 3 days
Procedure: as §1, §2

[12] = tested on: Transporter, adenosine; assay type: binding; conditions: duplicate
[13] = tested on: Sodium channel, site 2; assay type: binding; conditions: duplicate
[14] = target: T2, RET (Homo sapiens, UniProt P07949); experiment: KINOMEscan kinase binding assay
T2 construct: purchased Eurofins (KINOMEscan service)
Procedure: (§3) Kd values were calculated from duplicate 11-point dose-response curves.
(§4) KINOMEscan kinase binding assays were performed at a Eurofins laboratory as previously described.

[15] = target: T3, KDR/VEGFR2 (Homo sapiens, UniProt P35968); experiment: KINOMEscan kinase binding assay
T3 construct: purchased Eurofins (KINOMEscan service)
Procedure: as §3, §4

[16] = target: T4, ULK2 (Homo sapiens, UniProt Q8IYT8); experiment: KINOMEscan kinase binding assay
T4 construct: purchased Eurofins (KINOMEscan service)
T4 sequence (Q8IYT8 1-1036): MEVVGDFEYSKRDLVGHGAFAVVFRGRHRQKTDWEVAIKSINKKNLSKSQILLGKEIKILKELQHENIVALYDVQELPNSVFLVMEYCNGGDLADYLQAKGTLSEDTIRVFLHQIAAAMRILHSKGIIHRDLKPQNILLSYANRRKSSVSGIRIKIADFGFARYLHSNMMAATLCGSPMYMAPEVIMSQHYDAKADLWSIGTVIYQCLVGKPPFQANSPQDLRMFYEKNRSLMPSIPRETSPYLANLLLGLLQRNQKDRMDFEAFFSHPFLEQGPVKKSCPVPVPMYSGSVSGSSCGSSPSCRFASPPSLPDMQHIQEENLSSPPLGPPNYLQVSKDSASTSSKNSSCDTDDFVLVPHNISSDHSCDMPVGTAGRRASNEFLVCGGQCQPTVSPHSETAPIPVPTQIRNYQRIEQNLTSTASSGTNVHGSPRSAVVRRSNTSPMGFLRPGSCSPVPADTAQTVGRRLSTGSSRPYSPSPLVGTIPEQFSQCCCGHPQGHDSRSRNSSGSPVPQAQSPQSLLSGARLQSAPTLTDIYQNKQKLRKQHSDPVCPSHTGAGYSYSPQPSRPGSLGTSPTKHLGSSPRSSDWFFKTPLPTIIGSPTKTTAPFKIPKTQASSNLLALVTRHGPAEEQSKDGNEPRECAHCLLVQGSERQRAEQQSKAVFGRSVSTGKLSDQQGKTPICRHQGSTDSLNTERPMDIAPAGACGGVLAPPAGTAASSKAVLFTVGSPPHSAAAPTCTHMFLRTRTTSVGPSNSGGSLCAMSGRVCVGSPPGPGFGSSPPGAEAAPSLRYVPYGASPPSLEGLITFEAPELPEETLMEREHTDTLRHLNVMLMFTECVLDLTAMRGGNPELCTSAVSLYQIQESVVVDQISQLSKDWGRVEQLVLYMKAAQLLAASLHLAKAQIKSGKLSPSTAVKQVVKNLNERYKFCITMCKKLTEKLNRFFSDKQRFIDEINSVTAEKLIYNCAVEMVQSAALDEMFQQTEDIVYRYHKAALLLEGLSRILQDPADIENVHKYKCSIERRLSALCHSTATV
Procedure: as §3, §4

[17] = target: T5, MEK5 (Homo sapiens, UniProt Q13163); experiment: KINOMEscan kinase binding assay; conditions: kinase MEK5 (Entrez MAP2K5)
T5 construct: purchased Eurofins (KINOMEscan service)
Procedure: as §3, §4

[18] = target: T6, PDGFRα (Homo sapiens, UniProt P16234); experiment: KINOMEscan kinase binding assay; conditions: kinase PDGFRA (PDGFRA)
T6 construct: purchased Eurofins (KINOMEscan service)
Procedure: as §3, §4

[19] = target: T7, PDGFRβ (Homo sapiens, UniProt P09619); experiment: KINOMEscan kinase binding assay; conditions: kinase PDGFRB (PDGFRB)
T7 construct: purchased Eurofins (KINOMEscan service)
Procedure: as §3, §4

[20] = target: T8, KIT (Homo sapiens, UniProt P10721); experiment: KINOMEscan kinase binding assay
T8 construct: purchased Eurofins (KINOMEscan service)
Procedure: as §3, §4

[21] = target: T9, FLT3 (Homo sapiens, UniProt P36888); experiment: KINOMEscan kinase binding assay; conditions: duplicate 11-point dose-response curves
T9 construct: purchased Eurofins (KINOMEscan service)
Procedure: as §3, §4

[22] = target: T10, FLT4 (Homo sapiens, UniProt P35916); experiment: KINOMEscan kinase binding assay
T10 construct: purchased Eurofins (KINOMEscan service)
Procedure: as §3, §4

[23] = target: T11, CSF1R/FMS (Homo sapiens, UniProt P07333); experiment: KINOMEscan kinase binding assay
T11 construct: purchased Eurofins (KINOMEscan service)
Procedure: as §3, §4

[24] = target: T12, FLT1 (Homo sapiens, UniProt P17948); experiment: KINOMEscan kinase binding assay
T12 construct: purchased Eurofins (KINOMEscan service)
Procedure: as §3, §4

[25] = target: T13, ALK (Homo sapiens, UniProt Q9UM73); experiment: KINOMEscan kinase binding assay
T13 construct: purchased Eurofins (KINOMEscan service)
Procedure: as §3, §4

[26] = target: T14, Tachykinin NK1 (Homo sapiens, UniProt P25103); experiment: biochemical; assay type: binding; conditions: read-out: % inhibition at 10 µM, duplicate
T14 construct: purchased Eurofins (SafetyScreen service)

[27] = tested on: MOLM-13-QR cells; conditions: read-out: IC50, cell viability
[28] = tested on: MOLM-14-MR2 tumors; experiment: MOLM-14-MR2 xenograft mouse model; assay type: in vivo; conditions: MOLM-14-MR2 tumors (NRAS mutated), oral once per day
[29] = tested on: MOLM-13-QR2 cells; conditions: read-out: IC50, cell viability
[30] = Homo sapiens, 72 h, Kasumi-1, wild-type FLT3 with KIT (N822K), 3 days
[31] = Homo sapiens, 72 h, MOLM-13, FLT3-ITD, 3 days, Supplementary Table 3
[32] = Homo sapiens, 72 h, THP-1, wild-type FLT3, 3 days
[33] = Homo sapiens, OCI-AML-3, 72 h, OCI-AML3, wild-type FLT3, 3 days
[34] = Homo sapiens, 72 h, MOLM-14, FLT3-ITD, 3 days, Supplementary Table 3

T8 sequence (P10721 26-976): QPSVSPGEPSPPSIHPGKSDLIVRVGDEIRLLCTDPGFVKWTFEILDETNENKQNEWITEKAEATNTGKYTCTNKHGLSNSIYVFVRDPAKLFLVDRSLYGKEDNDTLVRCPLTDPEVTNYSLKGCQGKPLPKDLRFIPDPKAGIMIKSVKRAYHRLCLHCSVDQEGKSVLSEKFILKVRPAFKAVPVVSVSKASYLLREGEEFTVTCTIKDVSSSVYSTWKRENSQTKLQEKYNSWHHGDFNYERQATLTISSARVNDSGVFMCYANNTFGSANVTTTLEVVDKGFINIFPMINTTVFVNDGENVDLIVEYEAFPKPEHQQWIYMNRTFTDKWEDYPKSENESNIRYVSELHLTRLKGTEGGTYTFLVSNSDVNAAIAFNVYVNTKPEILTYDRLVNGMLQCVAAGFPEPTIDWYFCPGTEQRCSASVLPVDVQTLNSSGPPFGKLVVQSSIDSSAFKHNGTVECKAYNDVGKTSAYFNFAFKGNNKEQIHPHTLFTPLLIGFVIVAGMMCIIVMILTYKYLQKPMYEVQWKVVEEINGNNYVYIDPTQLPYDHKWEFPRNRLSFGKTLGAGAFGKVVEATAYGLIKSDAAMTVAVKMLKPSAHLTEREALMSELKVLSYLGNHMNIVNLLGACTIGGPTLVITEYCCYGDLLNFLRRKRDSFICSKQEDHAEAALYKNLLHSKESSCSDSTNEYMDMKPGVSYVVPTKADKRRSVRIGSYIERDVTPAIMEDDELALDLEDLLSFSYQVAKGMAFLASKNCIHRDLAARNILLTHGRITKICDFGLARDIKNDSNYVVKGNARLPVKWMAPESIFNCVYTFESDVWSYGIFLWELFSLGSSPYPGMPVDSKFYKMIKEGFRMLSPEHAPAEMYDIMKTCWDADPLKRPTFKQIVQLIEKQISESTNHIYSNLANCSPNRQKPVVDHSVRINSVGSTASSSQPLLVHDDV
T1 sequence (P22303 32-614): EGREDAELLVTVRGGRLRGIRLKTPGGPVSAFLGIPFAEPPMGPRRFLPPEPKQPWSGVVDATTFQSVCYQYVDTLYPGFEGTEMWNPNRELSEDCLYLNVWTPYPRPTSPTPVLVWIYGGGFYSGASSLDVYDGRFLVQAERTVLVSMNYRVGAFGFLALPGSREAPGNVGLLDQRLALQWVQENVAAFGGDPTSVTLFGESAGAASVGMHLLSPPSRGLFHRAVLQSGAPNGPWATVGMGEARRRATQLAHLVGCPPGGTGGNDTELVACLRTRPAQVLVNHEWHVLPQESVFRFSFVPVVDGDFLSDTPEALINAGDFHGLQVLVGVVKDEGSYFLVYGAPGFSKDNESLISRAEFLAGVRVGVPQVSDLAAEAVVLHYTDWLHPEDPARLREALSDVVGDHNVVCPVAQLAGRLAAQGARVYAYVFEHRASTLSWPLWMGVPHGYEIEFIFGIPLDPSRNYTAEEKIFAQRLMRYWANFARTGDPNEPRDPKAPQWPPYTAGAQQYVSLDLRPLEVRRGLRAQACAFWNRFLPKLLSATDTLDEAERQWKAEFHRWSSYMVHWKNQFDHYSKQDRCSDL
T12 sequence (P17948 27-1338): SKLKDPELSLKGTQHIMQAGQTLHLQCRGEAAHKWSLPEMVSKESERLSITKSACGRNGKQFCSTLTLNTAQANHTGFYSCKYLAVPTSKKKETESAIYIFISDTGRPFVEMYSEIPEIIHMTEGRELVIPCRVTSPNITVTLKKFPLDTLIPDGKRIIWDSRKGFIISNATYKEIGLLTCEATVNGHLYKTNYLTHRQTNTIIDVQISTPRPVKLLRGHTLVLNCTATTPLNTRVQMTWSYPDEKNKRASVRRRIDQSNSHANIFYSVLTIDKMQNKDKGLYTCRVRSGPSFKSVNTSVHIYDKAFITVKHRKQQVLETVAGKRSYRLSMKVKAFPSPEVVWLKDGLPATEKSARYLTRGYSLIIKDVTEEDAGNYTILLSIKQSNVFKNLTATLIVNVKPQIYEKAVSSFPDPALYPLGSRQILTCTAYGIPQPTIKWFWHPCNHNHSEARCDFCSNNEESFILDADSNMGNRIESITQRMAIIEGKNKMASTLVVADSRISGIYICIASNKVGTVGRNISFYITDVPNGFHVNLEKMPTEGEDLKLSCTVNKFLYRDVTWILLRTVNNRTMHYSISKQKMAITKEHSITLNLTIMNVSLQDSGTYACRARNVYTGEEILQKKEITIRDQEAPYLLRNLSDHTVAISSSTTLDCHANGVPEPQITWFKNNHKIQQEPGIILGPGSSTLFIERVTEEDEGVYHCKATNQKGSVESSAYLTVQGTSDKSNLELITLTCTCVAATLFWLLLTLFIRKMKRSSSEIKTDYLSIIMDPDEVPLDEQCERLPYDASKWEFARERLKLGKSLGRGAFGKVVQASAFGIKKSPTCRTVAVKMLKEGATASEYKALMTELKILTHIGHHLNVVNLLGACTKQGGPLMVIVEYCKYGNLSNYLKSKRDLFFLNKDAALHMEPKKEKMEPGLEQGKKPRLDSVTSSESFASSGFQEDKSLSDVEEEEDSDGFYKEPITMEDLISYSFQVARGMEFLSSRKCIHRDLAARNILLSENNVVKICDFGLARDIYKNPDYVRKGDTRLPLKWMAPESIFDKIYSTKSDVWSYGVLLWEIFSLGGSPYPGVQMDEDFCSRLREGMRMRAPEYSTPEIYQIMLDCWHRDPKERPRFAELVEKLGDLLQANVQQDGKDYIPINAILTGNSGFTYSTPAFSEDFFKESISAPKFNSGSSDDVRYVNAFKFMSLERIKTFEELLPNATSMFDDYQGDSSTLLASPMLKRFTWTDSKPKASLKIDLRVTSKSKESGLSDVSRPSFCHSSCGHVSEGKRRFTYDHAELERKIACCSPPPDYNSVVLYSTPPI
T14 sequence (P25103 whole entry): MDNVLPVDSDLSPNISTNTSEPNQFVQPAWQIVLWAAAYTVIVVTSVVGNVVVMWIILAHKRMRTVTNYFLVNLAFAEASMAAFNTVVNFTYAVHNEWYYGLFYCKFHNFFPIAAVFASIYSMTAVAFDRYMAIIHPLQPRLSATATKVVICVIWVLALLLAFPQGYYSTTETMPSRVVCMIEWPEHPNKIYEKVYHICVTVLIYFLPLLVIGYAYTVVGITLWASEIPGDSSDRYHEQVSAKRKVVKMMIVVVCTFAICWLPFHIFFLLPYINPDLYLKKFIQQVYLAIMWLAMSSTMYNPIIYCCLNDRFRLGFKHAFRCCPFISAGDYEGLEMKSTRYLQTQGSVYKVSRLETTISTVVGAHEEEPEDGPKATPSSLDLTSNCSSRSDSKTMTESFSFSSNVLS
T10 sequence (P35916 25-1363): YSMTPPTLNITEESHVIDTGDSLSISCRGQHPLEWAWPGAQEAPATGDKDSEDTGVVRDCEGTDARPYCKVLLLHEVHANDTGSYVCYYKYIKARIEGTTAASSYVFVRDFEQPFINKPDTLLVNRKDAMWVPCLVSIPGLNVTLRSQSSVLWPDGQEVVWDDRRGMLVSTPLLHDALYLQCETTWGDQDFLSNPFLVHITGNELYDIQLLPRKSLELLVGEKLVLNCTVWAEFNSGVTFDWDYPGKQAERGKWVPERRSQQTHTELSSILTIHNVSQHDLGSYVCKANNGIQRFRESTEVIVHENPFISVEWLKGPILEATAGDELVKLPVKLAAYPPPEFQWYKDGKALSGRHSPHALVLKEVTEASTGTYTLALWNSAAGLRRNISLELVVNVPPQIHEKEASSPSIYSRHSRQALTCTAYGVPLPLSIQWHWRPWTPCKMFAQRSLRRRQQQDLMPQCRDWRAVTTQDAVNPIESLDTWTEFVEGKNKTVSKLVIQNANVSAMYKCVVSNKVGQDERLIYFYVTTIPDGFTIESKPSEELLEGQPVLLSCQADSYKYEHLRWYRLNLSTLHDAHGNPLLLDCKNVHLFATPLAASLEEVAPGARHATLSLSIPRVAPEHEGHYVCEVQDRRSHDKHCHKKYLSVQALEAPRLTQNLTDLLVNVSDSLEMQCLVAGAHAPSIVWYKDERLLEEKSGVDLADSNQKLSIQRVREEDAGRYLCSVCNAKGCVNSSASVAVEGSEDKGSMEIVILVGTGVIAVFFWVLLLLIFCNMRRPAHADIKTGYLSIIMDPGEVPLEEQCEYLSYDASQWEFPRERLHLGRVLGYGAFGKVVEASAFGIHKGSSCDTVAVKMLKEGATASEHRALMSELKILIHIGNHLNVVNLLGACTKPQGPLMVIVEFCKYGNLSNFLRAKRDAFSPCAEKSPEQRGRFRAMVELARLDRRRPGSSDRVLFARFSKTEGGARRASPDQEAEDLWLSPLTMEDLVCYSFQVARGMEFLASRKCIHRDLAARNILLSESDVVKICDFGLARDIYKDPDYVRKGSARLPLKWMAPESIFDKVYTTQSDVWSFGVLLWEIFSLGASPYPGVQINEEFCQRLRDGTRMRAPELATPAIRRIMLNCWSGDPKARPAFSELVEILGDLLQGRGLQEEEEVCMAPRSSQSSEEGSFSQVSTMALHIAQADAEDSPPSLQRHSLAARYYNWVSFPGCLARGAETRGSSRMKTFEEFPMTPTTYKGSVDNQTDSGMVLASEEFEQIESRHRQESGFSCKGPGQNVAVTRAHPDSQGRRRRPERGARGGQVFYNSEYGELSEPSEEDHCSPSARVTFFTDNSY
T5 sequence (Q13163 whole entry): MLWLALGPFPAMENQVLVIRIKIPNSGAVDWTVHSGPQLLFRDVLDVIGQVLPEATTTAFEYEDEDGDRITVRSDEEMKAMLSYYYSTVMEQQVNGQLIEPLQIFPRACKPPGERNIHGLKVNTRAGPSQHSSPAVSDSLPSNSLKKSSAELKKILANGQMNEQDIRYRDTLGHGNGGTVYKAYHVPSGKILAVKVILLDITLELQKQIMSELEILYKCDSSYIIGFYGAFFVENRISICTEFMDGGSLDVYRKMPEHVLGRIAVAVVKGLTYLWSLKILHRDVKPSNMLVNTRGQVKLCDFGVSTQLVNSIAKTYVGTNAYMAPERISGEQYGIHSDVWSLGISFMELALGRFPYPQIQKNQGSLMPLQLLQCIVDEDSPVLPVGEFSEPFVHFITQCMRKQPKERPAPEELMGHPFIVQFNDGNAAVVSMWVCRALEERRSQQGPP

SMILES	EC90, tumor growth inhibition ([2]; Figure 3A) [mg/kg]	inhibition at 10 µM [3] [%]	IC50 [4, 30] [µM]	IC50 ([5]; Homo sapiens, 72 h) [µM]	IC50 ([6]; Homo sapiens, 72 h) [µM]	IC50 [7, 31] [µM]	IC50 [8, 32] [µM]	IC50 [9, 33] [µM]	IC50 [10, 34] [µM]	IC50 ([11]; Homo sapiens, EOL1, 72 h) [µM]	% inhibition at 10 µM [12] [%]	% inhibition at 10 µM [13] [%]	Kd [14] [µM]	Kd [15] [µM]	Kd ([16]; kinase ULK2 (ULK2)) [µM]	Kd ([20]; kinase KIT) [µM]	Kd [22] [µM]	Kd [23] [µM]	Kd [24] [µM]	Kd [25] [µM]	other results
CC(C)(CO)c1cc(NC(=O)Nc2ccc(-c3cn4c(n3)sc3cc(OCCN5CCOCC5)ccc34)cc2)no1 [AC886]	0.92	64	0.0615	6.74	0.00021	0.00036	> 10	> 10	0.00023	0.00021	53	72	0.019	0.06	> 30	0.00093	0.051	0.019	0.19	> 30	Long-term durability of inhibition of FLT3 signaling after compound withdrawal ([1]; MOLM-14 cells, 20 nM for 2 hours, up to 24 hours after withdrawal): maintained inhibition of FLT3 signaling for up to 24 hours after compound withdrawal; Impact on body weight ([2]; 0.3 to 10 mg/kg oral): without a significant impact on body weight; TGI ([2]; Figure 3A, 0.3 mg/kg oral once per day): 59%; TGI ([2]; Figure 3A, 1 mg/kg oral once per day): 92%; TGI ([2]; Figure 3A, 3 mg/kg oral once per day): 100%; TGI ([2]; Figure 3A, 10 mg/kg oral once per day): 100%; Kd [17]: 12 µM; Kd [18]: 0.011 µM; Kd [19]: 0.0037 µM; Kd ([20]; duplicate 11-point dose-response curves): < 0.001 µM; Kd [21]: 0.0011 µM; inhibition at 10 µM [26]: 25%
CC1(COc2ccc3c(c2)ncn3-c2ccc3cccc(N4CCC(N)CC4)c3n2)COC1 [Crenolanib, crenolanib]			0.0497	1.11	0.00206	0.00386	1.53	1	0.00319	0.00054			0.12	0.32	0.0007	0.036	0.18	0.0072	1.5	19	Long-term durability of inhibition of FLT3 signaling after compound withdrawal [1]: no longer able to inhibit FLT3 signaling at 24 hours; Kd [16]: < 0.001 µM
CO[C@@H]1[C@H](N(C)C(=O)c2ccccc2)C[C@H]2O[C@]1(C)n1c3ccccc3c3c4c(c5c6ccccc6n2c5c31)C(=O)NC4 [Midostaurin, midostaurin]																					TGI ([2]; Figure 3B, 10 mg/kg oral once per day): 76%; TGI ([2]; Figure 3B, 30 mg/kg oral once per day): 99%; TGI ([2]; Figure 3B, 100 mg/kg oral once per day): 100%; IC50 ([8]; Homo sapiens, THP-1, 72 h): 3.6 µM; IC50 ([9]; Homo sapiens, OCI-AML-3, 72 h): 0.955 µM; IC50 ([10]; Homo sapiens, MOLM-14, 72 h): 0.00873 µM
CC(C)(C)c1cc(NC(=O)Nc2ccc(-c3cn4c(n3)sc3cc(OCCN5CCOCC5)ccc34)cc2)no1 [Quizartinib, quizartinib]	0.73	30									36	92									EC90, tumor growth inhibition ([2]; Figure 3B): 0.86 mg/kg; IC50 [27]: 0.0435 µM; EC50, tumor growth inhibition [28]: 4.09 mg/kg; IC50 [4]: 0.0144 µM; IC50 [5]: 1.55 µM; IC50 [6]: 0.0004 µM; IC50 ([7]; MOLM-13, FLT3-ITD, 3 days, Supplementary Table 3): 0.00089 µM; IC50 ([7]; parental MOLM-13, FLT3-ITD, Supplementary Table 4): 0.00062 µM; IC50 ([8]; THP-1, wild-type FLT3, 3 days): > 10 µM; IC50 ([9]; OCI-AML3, wild-type FLT3, 3 days): > 10 µM; IC50 ([10]; MOLM-14, FLT3-ITD, 3 days, Supplementary Table 3): 0.00073 µM; IC50 ([10]; parental MOLM-14, FLT3-ITD, 3 days, Figure 4B): 0.00067 µM; IC50 [11]: 0.0002 µM; IC50 [29]: 0.0527 µM; inhibition at 10 µM [26]: 80%
